In patent US10941157B2, “Pesticidal compositions and uses thereof” (Gilead Apollo, LLC, priority 2015, dated 2021):
≈ marks a conversion by molar mass, not a printed value. Where two headings read alike, the source gives them in different places.

Experiments:
[1] = tested on: Phytophthora capsici (Pc); test: In vitro pathogen growth inhibition assay, Pc; format: cell-based; conditions: 48 h
How it was run: (§1)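 Value reported is the compound concentration reaching ≥90% growth inhibition, from OD readings at 24 and 48 h after blank subtraction, confirmed visually. Inoculum was spores diluted in 17% V8 medium, except Rs, using 1.5 mm mycelial plugs in ¼ PDB; actual compound concentration corrected via OD600.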

[2] = tested on: Puccinia triticina; test: Foliar protection test for wheat leaf rust control; format: in vivo; conditions: foliar application to wheat (Triticum aestivum cv. Winterhawk), evaluated 10 days later
[3] = tested on: Fusarium virguliforme (Fv); test: In vitro pathogen growth inhibition assay, Fv; format: cell-based
How it was run: as §1

[4] = tested on: Septoria tritici (St); test: In vitro pathogen growth inhibition assay, St; format: cell-based; conditions: Zymoseptoria tritici, 48 h
How it was run: as §1

[5] = tested on: Botrtyis cinerea (Bc); test: In vitro pathogen growth inhibition assay, Bc; format: cell-based; conditions: 48 h
How it was run: as §1

[6] = tested on: Phakopsora pachyrhizi; test: Foliar protection test for Asian soybean rust control; format: in vivo; conditions: foliar application to soybean (Glycine max AG4832), percent disease area evaluated 14 days later
[7] = tested on: Fusarium moniliforme (Fm); test: In vitro pathogen growth inhibition assay, Fm; format: cell-based; conditions: Fusarium verticillioides
How it was run: as §1

[8] = tested on: Diplodia maydis (Dm); test: In vitro pathogen growth inhibition assay, Dm; format: cell-based; conditions: Stenocarpella maydis, 48 h
How it was run: as §1

[9] = tested on: Fusarium graminearum; format: in vivo; conditions: spray on flowering Triticum aestivum cv. Samson, inoculated 24 hours after treatment, evaluated 14 days later
[10] = tested on: Sphaerotheca fuliginea; test: Foliar protection for cucumber powdery mildew control; format: in vivo; conditions: foliar spray on Cucumis sativus cv. Straight Eight, inoculated 24 hours after treatment, evaluated 7 days later
How it was run: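 Protective foliar spray on 10-day-old Straight Eight cucumbers, with S. fuliginea spores dusted from infected stock plants 24 h after treatment. Disease developed at 23–27 °C, 60% RH and a 16 h photoperiod. Leaves were rated for mildew growth after 7 days; test rates 10 ppm or below.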

[11] = tested on: Rhizoctonia solani (Rs); test: In vitro pathogen growth inhibition assay, Rs (mycelial plugs); format: cell-based; conditions: Rhizoctonia solani, 48 h, mycelial plugs
How it was run: as §1

[12] = tested on: Mycosphaerella graminicola (synthetic Septoria tritici); test: Foliar protection test for wheat septoria leaf blotch control; format: in vivo; conditions: foliar spray on Triticum aestivum cv. WinterHawk, inoculated 1 hour after treatment, evaluated 16 days later
[13] = tested on: Collectotrichum graminicola (Cg); test: In vitro pathogen growth inhibition assay, Cg; format: cell-based; conditions: 48 h
How it was run: as §1

[14] = tested on: Blumeria graminis f. sp. hordei; test: Foliar protection test for barley powdery mildew control; format: in vivo; conditions: foliar spray on Hordeum vulgare cv. Perry, inoculated 24 hours after treatment, evaluated 7 days later
How it was run: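 Protective foliar test: compound atomized onto both leaf surfaces of 6-day-old Hordeum vulgare cv. Perry, followed after 24 h by spore-cloud inoculation from colonized untreated plants. Disease rated on leaves 7 days on, plants held at 20 to 22° C and 70% RH.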

[15] = ≥90% growth inhibition, 48 hours, vs 2% DMSO control, read-out: Compound Concentration (ppm) sufficient for ≥90% inhibition of Pc
[16] = ≥90% growth inhibition, 48 hours, vs 2% DMSO control, read-out: Compound Concentration (ppm) sufficient for ≥90% inhibition of Fv
[17] = ≥90% growth inhibition, 48 hours, vs 2% DMSO control, read-out: Compound Concentration (ppm) sufficient for ≥90% inhibition of St
[18] = ≥90% growth inhibition, 48 hours, vs 2% DMSO control, read-out: Compound Concentration (ppm) sufficient for ≥90% inhibition of Bc
[19] = ≥90% growth inhibition, 48 hours, vs 2% DMSO control, read-out: Compound Concentration (ppm) sufficient for ≥90% inhibition of Fm
[20] = ≥90% growth inhibition, 48 hours, vs 2% DMSO control, read-out: Compound Concentration (ppm) sufficient for ≥90% inhibition of Dm
[21] = ≥90% growth inhibition, 48 hours, vs 2% DMSO control, read-out: Compound Concentration (ppm) sufficient for ≥90% inhibition of Rs
[22] = ≥90% growth inhibition, 48 hours, vs 2% DMSO control, read-out: Compound Concentration (ppm) sufficient for ≥90% inhibition of Cg
[23] = ≥90% inhibition, 48 hours vs 2% DMSO control, read-out: Compound Concentration (ppm) sufficient for ≥90% inhibition of growth, Pc
[24] = ≥90% inhibition, 48 hours vs 2% DMSO control, read-out: Compound Concentration (ppm) sufficient for ≥90% inhibition of growth, Fv
[25] = ≥90% inhibition, 48 hours vs 2% DMSO control, read-out: Compound Concentration (ppm) sufficient for ≥90% inhibition of growth, St
[26] = ≥90% inhibition, 48 hours vs 2% DMSO control, read-out: Compound Concentration (ppm) sufficient for ≥90% inhibition of growth, Bc
[27] = ≥90% inhibition, 48 hours vs 2% DMSO control, read-out: Compound Concentration (ppm) sufficient for ≥90% inhibition of growth, Fm
[28] = ≥90% inhibition, 48 hours vs 2% DMSO control, read-out: Compound Concentration (ppm) sufficient for ≥90% inhibition of growth, Dm
[29] = ≥90% inhibition, 48 hours vs 2% DMSO control, read-out: Compound Concentration (ppm) sufficient for ≥90% inhibition of growth, Rs
[30] = ≥90% inhibition, 48 hours vs 2% DMSO control, read-out: Compound Concentration (ppm) sufficient for ≥90% inhibition of growth, Cg

| SMILES | IC90 [1, 15] [µg/mL] | Wheat Leaf Rust Control at a compound concentration of 10 ppm or lower [2] | IC90 [3, 16] [µg/mL] | IC90 [4, 17] [µg/mL] | IC90 [5, 18] [µg/mL] | Asian Soybean Rust Control at a compound concentration of 25 ppm or lower [6] | IC90 [7, 19] [µg/mL] | IC90 [8, 20] [µg/mL] | Wheat Fusarium Head Blight Control at a compound concentration of 25 ppm or lower [9] | Cucumber Powdery Mildew Control at a compound concentration of 10 ppm or lower [10] | IC90 [11, 21] [µg/mL] | Septoria Leaf Blotch Control at a compound concentration of 25 ppm or lower [12] | IC90 [13, 22] [µg/mL] | Barley Powdery Mildew Control at a compound concentration of 10 ppm or lower [14] | IC90 [1, 23] [µg/mL] | IC90 [3, 24] [µg/mL] | IC90 [4, 25] [µg/mL] | IC90 [5, 26] [µg/mL] | IC90 [7, 27] [µg/mL] | IC90 [8, 28] [µg/mL] | further results |
| --- | --- | --- | --- | --- | --- | --- | --- | --- | --- | --- | --- | --- | --- | --- | --- | --- | --- | --- | --- | --- | --- |
| COc1ccc(F)cc1[C@H](Cn1c(=O)n([C@H](C)C(=O)NC2CCC2)c(=O)c2c(C)c(-n3cccn3)sc21)OCCC#N [Compound I-308, (R)-2-(1-((R)-2-(2-cyanoethoxy)-2-(5-fluoro-2-methoxyphenyl)ethyl)-5-methyl-2,4-dioxo-6-(1H-pyrazol-1-yl)-1,4-dihydrothieno[2,3-d]pyrimidin-3 (2H)-yl)-N-cyclobutylpropanamide] | 50 (≈ 84.1 µM) | AA (≥85% control of wheat leaf rust) | 2 (≈ 3.36 µM) | > 50 | 0.4 (≈ 0.673 µM) | C (from 25 to 49% control of Asian soybean rust) | 0.4 (≈ 0.673 µM) | 2 (≈ 3.36 µM) | C (from 25 to 49% control of wheat fusarium head blight) | AA (≥85% control of cucumber powdery mildew) | 0.08 (≈ 0.135 µM) | AA (≥85% control of wheat septoria leaf blotch) | 2 (≈ 3.36 µM) | AA (≥85% control of barley powdery mildew) |  |  |  |  |  |  |  |
| COc1ccc(F)cc1[C@H](Cn1c(=O)n([C@H](C)C(=O)NC(C)C)c(=O)c2c(C)c(-n3nccn3)sc21)OCCC#N [Compound I-198, (R)-2-(1-((R)-2-(2-cyanoethoxy)-2-(5-fluoro-2-methoxyphenyl)ethyl)-5-methyl-2,4-dioxo-6-(2H-1,2,3-triazol-2-yl)-1,4-dihydrothieno[2,3-d]pyrimidin-3 (2H)-yl)-N-isopropylpropanamide] | 2 (≈ 3.43 µM) | AA (≥85% control of wheat leaf rust) | 0.4 (≈ 0.685 µM) | ≥ 2 | 0.4 (≈ 0.685 µM) | AA (≥85% control of Asian soybean rust) | 0.08 (≈ 0.137 µM) | 0.08 (≈ 0.137 µM) | C (from 25 to 49% control of wheat fusarium head blight) | AA (≥85% control of cucumber powdery mildew) | 0.08 (≈ 0.137 µM) | AA (≥85% control of wheat septoria leaf blotch) | 0.08 (≈ 0.137 µM) | AA (≥85% control of barley powdery mildew) |  |  |  |  |  |  |  |
| COc1ccc(F)cc1[C@H](Cn1c(=O)n([C@@H](C)C(=O)NC(C)C)c(=O)c2c(C)c(-n3nccn3)sc21)OCCO [Compound I-096, (S)-2-(1-((R)-2-(5-fluoro-2-methoxyphenyl)-2-(2-hydroxyethoxy)ethyl)-5-methyl-2,4-dioxo-6-(2H-1,2,3-triazol-2-yl)-1,4-dihydrothieno[2,3-d]pyrimidin-3 (2H)-yl)-N-isopropylpropanamide] |  | A (from 70% to 84% control of wheat leaf rust) |  |  |  | A (from 70% to 84% control of Asian soybean rust) |  |  | D (<25% control of wheat fusarium head blight) | AA (≥85% control of cucumber powdery mildew) |  | B (from 50 to 69% control of wheat septoria leaf blotch) |  | B (from 50 to 69% control of barley powdery mildew) | 2 (≈ 3.48 µM) | 2 (≈ 3.48 µM) | ≥ 2 | 2 (≈ 3.48 µM) | 0.08 (≈ 0.139 µM) | 0.4 (≈ 0.696 µM) | IC90 [11, 29]: 0.08 µg/mL (≈ 0.139 µM); IC90 [13, 30]: 0.08 µg/mL (≈ 0.139 µM) |
| CCNC(=O)C(C)(C)n1c(=O)c2c(C)c(-n3nccn3)sc2n(C[C@H](O)c2cc(F)ccc2OC)c1=O [Compound I-292, (R)—N-ethyl-2-(1-(2-(5-fluoro-2-methoxyphenyl)-2-hydroxyethyl)-5-methyl-2,4-dioxo-6-(2H-1,2,3-triazol-2-yl)-1,4-dihydrothieno[2,3-d]pyrimidin-3 (2H)-yl)-2-methylpropanamide] | > 50 | AA (≥85% control of wheat leaf rust) | 0.4 (≈ 0.754 µM) | > 50 | 2 (≈ 3.77 µM) | B (from 50 to 69% control of Asian soybean rust) | 0.08 (≈ 0.151 µM) | 2 (≈ 3.77 µM) | C (from 25 to 49% control of wheat fusarium head blight) | AA (≥85% control of cucumber powdery mildew) | 0.4 (≈ 0.754 µM) | B (from 50 to 69% control of wheat septoria leaf blotch) | 2 (≈ 3.77 µM) | AA (≥85% control of barley powdery mildew) |  |  |  |  |  |  |  |
| COc1ccc(F)cc1[C@H](Cn1c(=O)n(C(C)(C)C(=O)NC(C)C)c(=O)c2c(C)c(-n3nccn3)sc21)OC1CCOCC1 [Compound I-030, (R)-2-(1-(2-(5-fluoro-2-methoxyphenyl)-2-((tetrahydro-2H-pyran-4-yl)oxy)ethyl)-5-methyl-2,4-dioxo-6-(2H-1,2,3-triazol-2-yl)-1,4-dihydrothieno[2,3-d]pyrimidin-3 (2H)-yl)-N-isopropyl-2-methylpropanamide] |  | AA (≥85% control of wheat leaf rust) |  |  |  | A (from 70% to 84% control of Asian soybean rust) |  |  | B (from 50 to 69% control of wheat fusarium head blight) | AA (≥85% control of cucumber powdery mildew) |  | B (from 50 to 69% control of wheat septoria leaf blotch) |  | AA (≥85% control of barley powdery mildew) | 50 (≈ 79.5 µM) | 0.4 (≈ 0.636 µM) | ≥ 2 | 0.4 (≈ 0.636 µM) | 0.08 (≈ 0.127 µM) | ≥ 0.4 | IC90 [11, 29]: 0.08 µg/mL (≈ 0.127 µM); IC90 [13, 30]: 0.4 µg/mL (≈ 0.636 µM) |
